Values of other authors, collected in patent US11077086B2, “Solid dosage form composition for buccal or sublingual administration of cannabinoids” (PHARMACEUTICAL PRODUCTIONS, INC., priority 2014, dated 2021).

Tested on: cannabinoid receptor

C=C(C)[C@@H]1CCC(C)=C[C@H]1c1c(O)cc(CCCCC)cc1O [cannabidiol (CBD), cannabidiol]
affinity for the cannabinoid receptor: do not have significant affinity
